Tested on: Imperial Gala apples
Assay: Apple coloration in Imperial Gala variety, percent red pixel area after foliar spray
Type: in vivo
Settings: for Average % Red Pixel Area: foliar spray, 34 hours post spray; for Fold Change From control: vs 0.05% Regulaid control
Procedure: 10 sets of unripened apples, Imperial Gala variety, harvested three weeks before the normal harvest date, were each foliar sprayed with either 1) 0.05% Regulaid® as a control, 2) 50 ppm prohydrojasmon, 3) 300 ppm prohydrojasmon, 4) 50 ppm ACC, 5) 300 ppm ACC or 6) a mixture of 50 ppm prohydrojasmon and 50 ppm ACC or 7) a mixture of 300 ppm prohydrojasmon and 300 ppm ACC. 34 hours post spray application percent red pixel area (shaded) was measured. Percent red pixel area is an indication of the coloration of the apple fruit.
To determine if the mixture provided unexpected results, the observed combined efficacy (“OCE”) was divided by the expected combined efficacy (“ECE”) wherein the ECE is calculated by the Abbott method: […]
wherein ECE is the expected combined efficacy and in which A and B are the fold change from control given by the single active ingredients. If the ratio between the OCE of the mixture and the ECE of the mixture is greater than 1, then greater than expected interactions are present in the mixture. (Gisi, Synergistic Interaction of Fungicides in Mixtures, The American Phytopathological Society, 86:11, 1273-1279,1996).

NC1(C(=O)O)CC1 [ACC, 1-amino-1-cyclopropanecarboxylic acid]
Average % Red Pixel Area (single active at 50 ppm): 7.02%
Fold Change From control (single active at 50 ppm): 0.03
Average % Red Pixel Area (single active at 300 ppm): 4.66%
Fold Change From control (single active at 300 ppm): −0.31

CCCCCC1C(=O)CCC1CC(=O)OCCC (centres unmarked) [prohydrojasmon]
Average % Red Pixel Area (single active at 50 ppm): 15.84%
Fold Change From control (single active at 50 ppm): 1.33
Average % Red Pixel Area (single active at 300 ppm): 21.03%
Fold Change From control (single active at 300 ppm): 2.09
